Assay results reported in BindingDB's records for patent US20230295182 (Idorsia Pharmaceuticals, 2023).

Biological target: Galectin-3 (Homo sapiens, UniProt P17931)
Assay: Evaluation of Compound Inhibitory Activity (IC50)
Method: Briefly, compounds are serially diluted in DMSO (working dilutions). ASF-coated 384 well plates are supplemented with 22.8 uL/well of biotinylated hGal-3 or hGal-1 in assay buffer (i.e. 300-1000 ng/mL biotinylated hGal-3 or hGal-1) to which 1.2 uL of compound working dilutions are added and mixed. Plates are incubated for 3 hours at 4 C., then washed with cold assay buffer (3x50 uL), incubated for 1 hour with 25 uL/well of a streptavidin-peroxidase solution (diluted in assay buffer to 80 ng/mL) at 4 C., followed by further washing steps with assay buffer (3x50 uL). Finally, 25 µL/well of ABTS substrate is added.

Galectin-3, sequence (P17931 whole entry): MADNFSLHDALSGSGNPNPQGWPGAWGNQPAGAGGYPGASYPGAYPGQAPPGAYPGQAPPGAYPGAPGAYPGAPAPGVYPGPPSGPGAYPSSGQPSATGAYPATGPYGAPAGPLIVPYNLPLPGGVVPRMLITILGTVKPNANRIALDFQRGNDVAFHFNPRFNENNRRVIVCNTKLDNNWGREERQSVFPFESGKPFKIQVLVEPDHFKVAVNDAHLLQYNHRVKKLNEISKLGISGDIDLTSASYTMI

Row | SMILES | IC50 [nM]
1 | CO[C@@H]1[C@@H](n2cc(-c3cc(F)c(F)c(F)c3)nn2)[C@@H](O)[C@@H](CO)O[C@@H]1CC1=NOC2(CCC(C)CC2)C1 (stereo partly drawn) [US20230295182, Example 1.30] | 500
2 | OC[C@H]1O[C@H](CC2=NOC3(CCCCC3)C2)[C@H](OCC(F)F)[C@@H](n2cc(-c3cc(F)c(F)c(F)c3)nn2)[C@H]1O [US20230295182, Example 1.67] | 230
3 | CO[C@@H]1[C@@H](n2cc(-c3ccc(C)c(F)c3F)nn2)[C@@H](O)[C@@H](CO)O[C@@H]1CN1CC2(CCCCC2)NC1=O [US20230295182, Example 4.01] | 46
